{"source": "patent US12336986B2", "about": "“Treatment and prevention of ocular neurodegenerative disorder” (The Jackson Laboratory, priority 2015, dated 2025)", "key": {"DBA/2J (D2) mice": {"test_system": "DBA/2J (D2) mice", "assay": "Optic nerve assessment (PPD staining) and determination of glaucomatous damage in D2 mice", "assay_type": "in vivo, mouse", "settings": "for risk factor of developing glaucoma (nerves with severe glaucoma): D2 mice at 12 months, control 0.6", "quoted_text": "This diet has no effects on the ocular health of the mice.\nPPD stains the myelin sheath of all axons but darkly stains the axoplasm of only damaged axons.\nBriefly, intracranial portions of optic nerves were fixed in 4% PFA at RT for 48 hrs, processed and embedded in plastic. A segment of optic nerve from within a region up to 1 mm from the posterior surface of the sclera was sectioned (1 μm thick sections) and stained with PPD. Typically 30-50 sections are taken from each nerve.\nMultiple sections of each nerve were considered when determining damage level. Optic nerves were analyzed and determined to have one of 3 damage levels: • (1) No or early damage (NOE) less than 5% axons damaged and no gliosis. This level of damage is seen in age and sex matched non-glaucomatous mice and is not due to glaucoma."}, "[1]": {"test_system": "retinal ganglion cells (RGCs)", "assay": "RGC soma loss (RBPMS staining) in D2 glaucoma", "assay_type": "in vivo, mouse", "settings": "D2 mice; NAM 550 mg/kg/day or pyruvate 500 mg/kg/day", "method": "(§1) For immunofluorescence staining, mice were euthanized by cervical dislocation, their eyes enucleated and placed in 4% PFA ON. Retinas were dissected and flat-mounted onto slides, permeabilized with 0.1% Triton-X for 15 mins, blocked with 2% BSA in PBS and stained ON at RT in primary antibody (see below for list of antibodies).\n(§2) After primary antibody incubation, retinas were washed 5 times in PBS, stained for 4 hrs at RT with secondary antibody. Slides were then washed a further 5 times with PBS, stained with DAPI for 15 mins, mounted with fluoromount, coverslipped and sealed with nail-polish.\n(§3) For retinal sections, eyes were cryoprotected in 30% sucrose ON, frozen in OCT and cryosectioned at 18 μm. Slides were warmed to room temperature and the procedure above was followed. Retinas were imaged on a Zeiss AxioObserver for low resolution counts. Retinal sections were imaged on a Leica SP8 far higher resolution images."}, "[2]": {"test_system": "dendritic mitochondria of D2 RGCs", "assay": "Electron microscopy of RGC dendritic mitochondria (cristae)", "assay_type": "in vivo, mouse", "settings": "D2 mice, NAM 550 mg/kg/day", "method": "Mice were euthanized, eyes enucleated, and then fixed ON in Smith-Ruda (0.8% PFA and 1.2% gluteraldehyde in 0.1 M phosphate buffer). The cornea and lens were dissected off and the remaining posterior eye-cup (containing the retina and ONH) were post-fixed in 2% aqueous osmium tetroxide and dehydrated in ethyl alcohol. Samples were then infiltrated and flat-mounted in Embed 812/Araldite resin (Electron Microscopy Sciences) to allow en face sections. Blocks were polymerized at 60° C. for 48 hrs and 90 nm microtome sections were cut (Leica UC6, Leica) onto 300 mesh copper grids. Grids were stained with 1% aqueous uranyl acetate/Reynold's lead citrate and were viewed on a JEOL JEM 1230 TEM. Images were collected on an AMT 2K camera."}, "HIF-1α": {"test_system": "HIF-1α", "assay": "HIF-1α induction (immunostaining, RNA-seq) in D2 retinas", "assay_type": "in vivo, mouse", "settings": "D2 mice, early glaucoma, NAM 550 mg/kg/day", "method": "as §1, §2, §3"}, "[3]": {"test_system": "ganglion cell layer cells (GCL cells)", "assay": "Whole retina explant culture (axotomy culture model), DAPI nuclei", "assay_type": "cell-based, mouse", "description": "Mice were euthanized, eyes enucleated and placed immediately into ice-cold HBSS. Retinas were dissected from the eyes in HBSS on ice, flat-mounted with the ganglion cell layer up on a cell culture insert (Millipore), and submerged in tissue culture media containing Neurobasal-A, 1% penicillin-streptomycin (10000 U/mL), 1% glutamine (100×), 1% N-2 (100×) and 1% B-27 (50×) (all ThermoFisher Scientific).\nFor drug treated retinas tissue culture media was made as above and supplemented with one of the following compounds (all Sigma unless otherwise): β-NAD, NAM (PanReac AppliChem), β-NMN. Retinas were incubated in 6-well plates at 37° C. and 4% CO2 for 5 days before being fixed in 4% PFA and stained with DAPI. (For untreated “Day 0” controls, retinas were dissected and placed straight into 4% PFA.) Retinas were imaged on a Zeiss AxioObserver."}, "[4]": {"settings": "axotomized retinas in culture, 5 days"}}, "note": "“Also recorded” adds a separate entry of the source.", "data": [{"smiles": "NC(=O)c1cccnc1", "note": "[NAM, nicotinamide]", "values": [{"measurement": "risk factor of developing glaucoma (nerves with severe glaucoma)", "setting": "DBA/2J (D2) mice; high dose NAM 2,000 mg/kg/day", "value": 0.06}, {"measurement": "risk factor of developing glaucoma (nerves with severe glaucoma)", "setting": "DBA/2J (D2) mice; low dose NAM 550 mg/kg/day", "value": 0.36}, {"measurement": "protection against glaucoma compared to Wld^S alone", "setting": "DBA/2J (D2) mice; D2 mice bearing the Wld^S mutation, NAM 550 mg/kg/day", "value": "better protects against glaucoma than Wld^S alone; also recorded: significantly better than Wld^S alone"}, {"measurement": "protection from glaucomatous damage (no glaucoma)", "setting": "DBA/2J (D2) mice; D2 mice carrying the Wld^S mutation, NAM 550 mg/kg/day from 6 months", "value": "~95", "unit": "%"}, {"measurement": "treated eyes having no glaucomatous optic nerve damage", "setting": "DBA/2J (D2) mice; D2 mice, NAM 2000 mg/kg/d (NAM^Hi), 12 months of age", "value": 93, "unit": "%"}, {"measurement": "protective in glaucoma", "setting": "DBA/2J (D2) mice; D2 mice, NAM alone (550 mg/kg/day)", "value": "about 70%"}, {"measurement": "decrease in risk factor of developing glaucoma", "setting": "DBA/2J (D2) mice; D2 mice, high dose NAM 2,000 mg/kg/day", "value": 10, "unit": "fold"}, {"measurement": "drop in risk factor", "setting": "DBA/2J (D2) mice; D2 mice, low dose NAM 550 mg/kg/day", "value": "~2", "unit": "fold"}, {"measurement": "RGC soma loss (RBPMS)", "setting": "[1]", "value": "prevented; also recorded: protects from RGC soma loss; also recorded: prevent RGC soma loss"}, {"measurement": "mitochondrial dysfunction / abnormal cristae in dendritic mitochondria (EM)", "setting": "[2]", "value": "sufficient to inhibit the formation of dysfunctional mitochondria; also recorded: prevents early mitochondrial dysfunction"}, {"measurement": "HIF-1α upregulation / transcriptional induction", "setting": "HIF-1α", "value": "limited; also recorded: lessens upregulation"}, {"measurement": "nuclear diameter shrinkage (DAPI-labeled nuclei)", "setting": "[3]; axotomized D2 retinas in culture, 5 days post-axotomy, NAM 100 mM and 500 mM", "value": "most robust protection against nuclear shrinkage; also recorded: protects against cell shrinkage; also recorded: indistinguishable from uninjured, baseline controls"}, {"measurement": "ganglion cell layer cell death / cell density", "setting": "[3]; [4]", "value": "attractive dose-response effect"}, {"measurement": "protective effect in retina tissue culture", "setting": "[3]; [4]", "value": "robustly protected"}]}]}
